Measurements from publication PMC4626215, “Esculentin-2CHa-Related Peptides Modulate Islet Cell Function and Improve Glucose Tolerance in Mice with Diet-Induced Obesity and Insulin Resistance” (PLoS ONE, 2015).
Bridges are numbered along the chain shown (N, C = ends). Where no end group is shown, it is not given here.

Legend:
BRIN-BD11 cells [1] = assay: Membrane potential, FLIPR membrane assay kit; type: cell-based, rat; details: for Membrane potential (AUC, x 10^3 RFU): 1 μM peptide, 5 min, mean ± SEM, n = 8
Procedure: (§1) Effects of esculentin-2CHa (1 μM) and its analogues on membrane potential and [Ca^2+]i in BRIN-BD11 cells over a period of 5 min were assessed using commercially available FLIPR membrane or calcium assay kit (Molecular Devices, USA) as previously described. Data were captured using a Flexstation 3 microplate reader equipped with automatic fluid transfer unit (Molecular Devices, USA).

[2] = system: BRIN-BD11 rat clonal β-cells; assay: In vitro insulin release from BRIN-BD11 cells; type: cell-based; details: 5.6 mM glucose; for BRIN-BD11 cells (Threshold concentration): minimum concentration producing a significant increase in rate of insulin release, 37°C
Procedure: (§2) In vitro insulin-releasing effects of esculentin-2CHa and its analogues were assessed using BRIN-BD11 rat clonal β-cells and mouse islets. In the first set of experiments, BRIN-BD11 cells were incubated with the peptides in the concentration range (1 pM– 3 μM) in Krebs-Ringer bicarbonate buffer containing 5.6 mM glucose for 20 min at 37°C as previously described [15–17]. Insulin-releasing effects were also assessed using buffer supplemented with 1.4 and 16.7mm glucose concentrations and with established modulators of insulin release as previously described [15–17]. In a second set of experiments, islets from NIH Swiss mice, isolated by collagenase digestion [18, 19], were incubated with a range of concentrations of esculentin-2CHa or its analogues (0.1 nM– 1 μM) for 1 h in Krebs-Ringer bicarbonate (KRB) buffer supplemented with 1.4, 5.6 or 16.7 mM glucose. Following test incubations, aliquots of buffer were retrieved and stored at -20°C for measurement of insulin by radioimmunoassay [20].

BRIN-BD11 cells [3] = assay: Intracellular calcium ([Ca2+]i), FLIPR calcium assay kit; type: cell-based, rat; details: for Intracellular Ca2+ (AUC, x 10^2 RFU): 1 μM peptide, 5 min, mean ± SEM, n = 8
Procedure: as §1

[4] = system: islets from NIH Swiss mice; assay: In vitro insulin release from isolated mouse islets; type: cell-based; details: 16.7 mM glucose; for Stimulation of insulin release from islets, fold of basal: 1 μM, 1 h; for Mouse islets (Threshold concentration): insulin release, 1 h incubation, n = 8
Procedure: as §2

BRIN-BD11 cells [5] = details: 3 μM peptide (highest concentration); mean ± SEM, n = 8
Procedure: In vitro insulin-releasing effects of esculentin-2CHa and its analogues were assessed using BRIN-BD11 rat clonal β-cells and mouse islets. In the first set of experiments, BRIN-BD11 cells were incubated with the peptides in the concentration range (1 pM– 3 μM) in Krebs-Ringer bicarbonate buffer containing 5.6 mM glucose for 20 min at 37°C as previously described. Insulin-releasing effects were also assessed using buffer supplemented with 1.4 and 16.7mm glucose concentrations and with established modulators of insulin release as previously described. In a second set of experiments, islets from NIH Swiss mice, isolated by collagenase digestion, were incubated with a range of concentrations of esculentin-2CHa or its analogues (0.1 nM– 1 μM) for 1 h in Krebs-Ringer bicarbonate (KRB) buffer supplemented with 1.4, 5.6 or 16.7 mM glucose. Following test incubations, aliquots of buffer were retrieved and stored at -20°C for measurement of insulin by radioimmunoassay. In the experiments with BRIN-BD11 cells, the release of lactate dehydrogenase (LDH) was measured as an indicator of the integrity of the plasma membrane using commercially available CytoTox 96 non-radioactive cytotoxicity assay kit (Promega, Madison, WI, USA) according to the manufacturer’s recommended protocol.

high fat fed mice = assay: Acute in vivo glucose tolerance and insulin release; design: species or system mouse; details: for Plasma glucose (AUC) / Plasma insulin (AUC): ip glucose 18 mmol/kg with peptide 75 nmol/kg, AUC 0-60 min, mean ± SEM, n = 8
Procedure: Male National Institutes of Health (NIH) Swiss mice (Harlan Ltd, UK) were housed separately in an air-conditioned room (22 ± 2°C) with relative humidity of 51 ± 5% and a 12-hour light: 12-hour dark cycle and maintained on a high fat diet containing 45% fat, 20% protein and 35% carbohydrate (total energy 19.5 kJ/g, Dietex International Ltd, Witham, UK) for 120 days. Mice maintained on standard rodent diet containing 10% fat, 30% protein and 60% carbohydrates (total energy 12.99 kJ/g) were used as controls. Both groups of animals were allowed food and water ad libitum. All animal experiments were carried out in accordance with the UK Animals (Scientific Procedures) Act 1986 and EU Directive 2010/63EU for animal experiments. The study was approved by University of Ulster Research Ethics Committee.
For acute in vivo studies, overnight fasted, high fat fed mice (n = 8) received an intraperitoneal injection of glucose alone (18 mmol/kg body weight) or in combination with esculentin-2CHa or its analogues (75 nmol/kg body weight). This peptide dose was selected on the basis of a pilot study that examined acute effects of different doses of esculentin-2CHa on glucose tolerance in lean mice. Blood samples were collected as described previously before injection and at times indicated in the Figures for the measurement of plasma glucose and insulin concentrations.
Pancreatic tissues were homogenized in 20 mM Tris-HCl, 150 mM NaCl, 1 mM EDTA, 1 mM EGTA and 0.5% Triton X 100; pH 7.5 as previously described. Blood samples (approximately 150 μl), collected from the cut tip of the tail vein of unanesthetized mice at intervals indicated in the Figures were used for blood glucose measurements and determination of plasma insulin as previously described. Blood glucose was measured using a hand-held Ascencia Contour meter (Bayer Healthcare, UK). Plasma and pancreatic insulin were determined by radioimmunoassay. Plasma and pancreatic glucagon contents were determined by ELISA using commercially available kit (Millipore, MA, USA). Plasma creatinine, alanine transaminase (ALT), aspartic acid transaminase (AST) and alkaline phosphatase (ALP) were measured using commercially available kits (Randox Laboratories, UK) as indicators of renal and liver function. Plasma triglyceride and cholesterol concentrations were measured using an automated clinical chemistry analyser (I-lab 650, and reagents purchased from Instrumentation Laboratory (Warrington, UK). The assay kit for cholesterol was obtained from Randox Laboratories (Antrim, UK). Estimation of LDL cholesterol concentrations was achieved using the Friedewald equation as described previously.

[6] = peptide 75 nmol/kg ip with glucose 18 mmol/kg

| Compound | Increase of membrane potential (BRIN-BD11 cells [1]; 30 mM) | Increase of insulin secretion, fold of basal ([2]; 10 mM, 20 min, n = 8) | Increase of intracellular Ca2+ (BRIN-BD11 cells [3]; 10 mM) | BRIN-BD11 cells (Threshold concentration) ([2]; 20 min, n = 8) | Stimulation of insulin release from islets, fold of basal [4] | Mouse islets (Threshold concentration) [4] | LDH release (% of control) (BRIN-BD11 cells [5]) | Membrane potential (AUC, x 10^3 RFU) (BRIN-BD11 cells [1]) | Intracellular Ca2+ (AUC, x 10^2 RFU) (BRIN-BD11 cells [3]) | Plasma glucose (AUC) (high fat fed mice) | Plasma insulin (AUC) (high fat fed mice) | Insulin-secretory response, fold of basal ([2]; 3 μM peptide, 20 min) | Decrease of plasma glucose AUC versus glucose alone (high fat fed mice; [6]) | Increase in integrated plasma insulin response versus glucose alone (high fat fed mice; [6]) | Stimulatory effect on insulin release at 3 μM compared with native peptide ([2]; 3 μM) | Stimulation of insulin response relative to that with esculentin-2CHa (high fat fed mice; [6]) |
| --- | --- | --- | --- | --- | --- | --- | --- | --- | --- | --- | --- | --- | --- | --- | --- | --- |
| [Cl-].[K+] [KCl, reference compound] | 5.2 fold | – | – | – | – | – | – | – | – | – | – | – | – | – | – | – |
| C[C@H](N)C(=O)O [alanine, reference compound] | – | 7.3 fold | 4.6 fold | – | – | – | – | – | – | – | – | – | – | – | – | – |
| GFSSIFRGVAKFASKGLGKDKAKLGVDLVACKISKQC (disulfide 31-37 (inferred)) [[L21K]Esculentin-2CHa, substituted analogue of esculentin-2CHa with increased cationicity] | – | – | – | 10 pM | 2.6 fold | 10 nM | 100.6±2.0 % of control | 7.78±0.31 x 10^3 RFU | 6.14±0.41 x 10^2 RFU | 598.68±35.23^ΔΔ mmol/l.min | 131.12±14.25^Δ ng/ml.min | – | – | – | – | – |
| GFSSIFRGVAKFASKGLGKDLAKKGVDLVACKISKQC (disulfide 31-37 (inferred)) [[L24K]Esculentin-2CHa, substituted analogue of esculentin-2CHa with increased cationicity] | – | – | – | 10 pM | 2.3 fold | 10 nM | 101.3±3.1 % of control | 7.87±0.19 x 10^3 RFU | 6.28±0.62 x 10^2 RFU | 662.25±32.14^ΔΔ mmol/l.min | 129.89±11.02^Δ ng/ml.min | – | – | – | – | – |
| GFSSIFRGVAKFASKGLGKDLAKLGVDLVACKISKQC (disulfide 31-37 (inferred)) [Esculentin-2CHa, frog skin host-defense peptide first isolated from Lithobates chiricahuensis; synthetic] | – | – | – | – | 2.7 fold | 10 nM | 102.7±1.1 % of control | 8.01±0.28 x 10^3 RFU | 6.44±0.47 x 10^2 RFU | 463.99 ± 46.95 mmol·min/L | 165.05 ± 16.89 ng·min/mL | 10.3 fold | 33% | 48% | – | – |
| GFSSIFRGVAKFASKGLGKDLAKLGVDLVAKKISKQC [[C31K]Esculentin-2CHa, substituted analogue of esculentin-2CHa with increased cationicity] | – | – | – | 10 pM | 3.3 fold | 0.1 nM | 100.2±2.8 % of control | 7.92±0.14 x 10^3 RFU | 6.32±0.72 x 10^2 RFU | 410.72 ± 29.25 mmol·min/L | 240.32±31.04 ^,ΔΔΔ ng/ml.min | – | 40% | – | greater | 2.4 fold |
| GFSSIFRGVAKFASKGLGKDLAKLGVDLVASKISKQS [[C31S,C37S]Esculentin-2CHa, analogue with Cys31 and Cys37 replaced by serine] | – | – | – | 10 pM | 2.6 fold | 1 nM | 104.3±3.1 % of control | 7.96±0.24 x 10^3 RFU | 6.55±0.36 x 10^2 RFU | 618.65±86.0^ΔΔ mmol/l.min | 122.74±28.65^Δ ng/ml.min | – | – | – | – | – |
| GFSSIFRGVAKFASKGLGKKLAKLGVKLVACKISKQC (disulfide 31-37 (inferred)) [[D20K, D27K]Esculentin-2CHa, analogue with Asp20 and Asp27 replaced by L-Lysine] | – | – | – | 100 pM | 1.7 fold | 10 nM | 102.5±2.6 % of control | 7.85±0.32 x 10^3 RFU | 6.10±0.46 x 10^2 RFU | 667.78±60.23^ΔΔ mmol/l.min | 122.96±16.76^Δ ng/ml.min | – | – | – | – | – |
| GLP-1: incretin hormone used as positive control for islet insulin release [reference compound] | – | – | – | – | 2.4 fold | – | – | – | – | – | – | – | – | – | – | – |
